Experimental data published in US4656166A, “Antibiotic compounds derived from cephalosporins, process for their production and pharmaceutical compositions” (Sanofi, priority 1983, dated 1987).
In brackets after ≈: the same amount, converted by molar mass.

Key:
Type in all cases: cell-based
Pseudomonas RL 112 = test: MIC, in vitro dilution method, Pseudomonas RL 112 (Table III); settings: RL112
Excerpt: (§1) The products of the invention have been studied as regards their pharmacological properties and, more especially, bacteriostatic action. This has been determined in vitro by the dilution method, and the study was on Gram negative strains.
(§2) Results, expressed in minimum inhibiting concentrations (MIC-- μg/ml), are collected in the following table (Table III).

Klebsiella RO 30 = test: MIC, in vitro dilution method, Klebsiella RO 30 (Table III); settings: RO30; Klebsiella RO 30; dilution method; read-out: MIC
Excerpt: as §1, §2

Escherichia coli SOL 90 = test: MIC, in vitro dilution method, Escherichia coli SOL 90 (Table III); settings: SOL90; Escherichia coli SOL 90; dilution method; read-out: MIC
Excerpt: as §1, §2

Enterobacter RO 154 = test: MIC, in vitro dilution method, Enterobacter RO 154 (Table III); settings: RO154; Enterobacter RO 154; dilution method; read-out: MIC
Excerpt: as §1, §2

CC(C)(ON=C(C(=O)NC1C(=O)N2C(C(=O)O)=C(CSC(=O)c3cccc(NC(=O)CN)c3)C[S+]([O-])C12)c1csc(N)n1)C(=O)O (stereo not drawn) [compound 42685]
MIC (Pseudomonas RL 112): 8 µg/mL (≈ 11.5 µM)
MIC (Klebsiella RO 30): 1 µg/mL (≈ 1.44 µM)
MIC (Escherichia coli SOL 90): 2 µg/mL (≈ 2.88 µM)
MIC (Enterobacter RO 154): 2 µg/mL (≈ 2.88 µM)

Cc1cc(CN)ccc1C(=O)SCC1=C(C(=O)O)N2C(=O)C(NC(=O)C(=NOC(C)(C)C(=O)O)c3csc(N)n3)C2[S+]([O-])C1 (stereo not drawn) [compound 42850]
MIC (Pseudomonas RL 112): 8 µg/mL (≈ 12 µM)
MIC (Klebsiella RO 30): 0.25 µg/mL (≈ 0.376 µM)
MIC (Escherichia coli SOL 90): 0.5 µg/mL (≈ 0.752 µM)
MIC (Enterobacter RO 154): 2 µg/mL (≈ 3.01 µM)

CC(N)C(=O)Nc1nc(C(=O)OCC2=C(C(=O)O)N3C(=O)C(NC(=O)C(=NOC(C)(C)C(=O)O)c4csc(N)n4)C3[S+]([O-])C2)cs1 (stereo not drawn) [42 857]
MIC (Pseudomonas RL 112): 8 µg/mL (≈ 11.4 µM)
MIC (Klebsiella RO 30): 1 µg/mL (≈ 1.43 µM)
MIC (Escherichia coli SOL 90): 0.5 µg/mL (≈ 0.716 µM)
MIC (Enterobacter RO 154): 8 µg/mL (≈ 11.4 µM)

NCC(=O)Nc1ccc(C(=O)SCC2=C(C(=O)O)N3C(=O)C(NC(=O)C(=NOC4(C(=O)O)CCC4)c4csc(N)n4)C3[S+]([O-])C2)cc1 (stereo not drawn) [compound 42665]
MIC (Pseudomonas RL 112): 8 µg/mL (≈ 11.3 µM)
MIC (Klebsiella RO 30): 0.5 µg/mL (≈ 0.708 µM)
MIC (Escherichia coli SOL 90): 0.5 µg/mL (≈ 0.708 µM)
MIC (Enterobacter RO 154): 2 µg/mL (≈ 2.83 µM)

CC(N)C(=O)Nc1ccc(C(=O)OCC2=C(C(=O)O)N3C(=O)C(NC(=O)C(=NOC(C)(C)C(=O)O)c4csc(N)n4)C3[S+]([O-])C2)cc1 (stereo not drawn) [42 817]
MIC (Pseudomonas RL 112): 4 µg/mL (≈ 5.78 µM)
MIC (Klebsiella RO 30): 0.25 µg/mL (≈ 0.361 µM)
MIC (Escherichia coli SOL 90): 0.125 µg/mL (≈ 0.181 µM)
MIC (Enterobacter RO 154): 4 µg/mL (≈ 5.78 µM)

CC(C)(ON=C(C(=O)NC1C(=O)N2C(C(=O)O)=C(COC(=O)c3ccc(NC(=O)CCCCN)cc3)C[S+]([O-])C12)c1csc(N)n1)C(=O)O (stereo not drawn) [42 689]
MIC (Pseudomonas RL 112): 4 µg/mL (≈ 5.56 µM)
MIC (Klebsiella RO 30): 0.25 µg/mL (≈ 0.347 µM)
MIC (Escherichia coli SOL 90): 0.125 µg/mL (≈ 0.174 µM)
MIC (Enterobacter RO 154): 4 µg/mL (≈ 5.56 µM)

Cc1nc(NC(=O)CN)sc1C(=O)OCC1=C(C(=O)O)N2C(=O)C(NC(=O)C(=NOC(C)(C)C(=O)O)c3csc(N)n3)C2[S+]([O-])C1 (stereo not drawn) [42 690]
MIC (Pseudomonas RL 112): 4 µg/mL (≈ 5.72 µM)
MIC (Klebsiella RO 30): 0.5 µg/mL (≈ 0.716 µM)
MIC (Escherichia coli SOL 90): 0.5 µg/mL (≈ 0.716 µM)
MIC (Enterobacter RO 154): 8 µg/mL (≈ 11.4 µM)

CC(C)(ON=C(C(=O)NC1C(=O)N2C(C(=O)O)=C(COC(=O)c3ccc(NC(=O)C4CCNCC4)cc3)C[S+]([O-])C12)c1csc(N)n1)C(=O)O (stereo not drawn) [42 815]
MIC (Pseudomonas RL 112): 8 µg/mL (≈ 10.9 µM)
MIC (Klebsiella RO 30): 0.25 µg/mL (≈ 0.342 µM)
MIC (Escherichia coli SOL 90): 0.125 µg/mL (≈ 0.171 µM)
MIC (Enterobacter RO 154): 8 µg/mL (≈ 10.9 µM)

CC(C)(ON=C(C(=O)NC1C(=O)N2C(C(=O)O)=C(COC(=O)C3CCN(C(=O)CCCN)CC3)C[S+]([O-])C12)c1csc(N)n1)C(=O)O (stereo not drawn) [42 783]
MIC (Pseudomonas RL 112): 8 µg/mL (≈ 11.5 µM)
MIC (Klebsiella RO 30): 0.125 µg/mL (≈ 0.179 µM)
MIC (Escherichia coli SOL 90): 0.25 µg/mL (≈ 0.358 µM)
MIC (Enterobacter RO 154): 2 µg/mL (≈ 2.87 µM)

Cc1cc(CN)ccc1C(=O)SCC1=C(C(=O)O)N2C(=O)C(NC(=O)C(=NOC3(C(=O)O)CCC3)c3csc(N)n3)C2[S+]([O-])C1 (stereo not drawn) [compound 42851]
MIC (Pseudomonas RL 112): 8 µg/mL (≈ 11.8 µM)
MIC (Klebsiella RO 30): 0.25 µg/mL (≈ 0.369 µM)
MIC (Escherichia coli SOL 90): 0.5 µg/mL (≈ 0.739 µM)
MIC (Enterobacter RO 154): 1 µg/mL (≈ 1.48 µM)

Cc1cc(CN)ccc1C(=O)OCC1=C(C(=O)O)N2C(=O)C(NC(=O)C(=NOC3(C(=O)O)CCC3)c3csc(N)n3)C2[S+]([O-])C1 (stereo not drawn) [42 849]
MIC (Pseudomonas RL 112): 4 µg/mL (≈ 6.05 µM)
MIC (Klebsiella RO 30): 0.125 µg/mL (≈ 0.189 µM)
MIC (Escherichia coli SOL 90): 0.125 µg/mL (≈ 0.189 µM)
MIC (Enterobacter RO 154): 2 µg/mL (≈ 3.03 µM)

CC(C)(ON=C(C(=O)NC1C(=O)N2C(C(=O)O)=C(COC(=O)c3ccc(CN)c(Br)c3)C[S+]([O-])C12)c1csc(N)n1)C(=O)O (stereo not drawn) [42 676]
MIC (Pseudomonas RL 112): 8 µg/mL (≈ 11.2 µM)
MIC (Klebsiella RO 30): 0.25 µg/mL (≈ 0.35 µM)
MIC (Escherichia coli SOL 90): 0.25 µg/mL (≈ 0.35 µM)
MIC (Enterobacter RO 154): 2 µg/mL (≈ 2.8 µM)

Cc1cc(NC(=O)CN)c(C)c(C(=O)OCC2=C(C(=O)O)N3C(=O)C(NC(=O)C(=NOC(C)(C)C(=O)O)c4csc(N)n4)C3[S+]([O-])C2)c1 (stereo not drawn) [42 814]
MIC (Pseudomonas RL 112): 8 µg/mL (≈ 11.3 µM)
MIC (Klebsiella RO 30): 0.25 µg/mL (≈ 0.354 µM)
MIC (Escherichia coli SOL 90): 0.5 µg/mL (≈ 0.708 µM)
MIC (Enterobacter RO 154): 8 µg/mL (≈ 11.3 µM)

CC(N)C(=O)N1CCC(C(=O)OCC2=C(C(=O)O)N3C(=O)C(NC(=O)C(=NOC(C)(C)C(=O)O)c4csc(N)n4)C3[S+]([O-])C2)CC1 (stereo not drawn) [42 781]
MIC (Pseudomonas RL 112): 4 µg/mL (≈ 5.85 µM)
MIC (Klebsiella RO 30): 0.125 µg/mL (≈ 0.183 µM)
MIC (Escherichia coli SOL 90): 0.25 µg/mL (≈ 0.366 µM)
MIC (Enterobacter RO 154): 2 µg/mL (≈ 2.93 µM)

CC(C)(CN)C(=O)SCC1=C(C(=O)O)N2C(=O)C(NC(=O)C(=NOC(C)(C)C(=O)O)c3csc(N)n3)C2[S+]([O-])C1 (stereo not drawn) [compound 42663]
MIC (Pseudomonas RL 112): 8 µg/mL (≈ 13 µM)
MIC (Klebsiella RO 30): 1 µg/mL (≈ 1.62 µM)
MIC (Escherichia coli SOL 90): 4 µg/mL (≈ 6.49 µM)
MIC (Enterobacter RO 154): 4 µg/mL (≈ 6.49 µM)

Cc1c(NC(=O)CCN)cccc1C(=O)OCC1=C(C(=O)O)N2C(=O)C(NC(=O)C(=NOC(C)(C)C(=O)O)c3csc(N)n3)C2[S+]([O-])C1 (stereo not drawn) [42 586]
MIC (Pseudomonas RL 112): 4 µg/mL (≈ 5.67 µM)
MIC (Klebsiella RO 30): 0.25 µg/mL (≈ 0.354 µM)
MIC (Escherichia coli SOL 90): 0.25 µg/mL (≈ 0.354 µM)
MIC (Enterobacter RO 154): 16 µg/mL (≈ 22.7 µM)

CC(C)(ON=C(C(=O)NC1C(=O)N2C(C(=O)O)=C(COC(=O)c3ccc(NC(=O)CCCN)cc3)C[S+]([O-])C12)c1csc(N)n1)C(=O)O (stereo not drawn) [42 688]
MIC (Pseudomonas RL 112): 4 µg/mL (≈ 5.67 µM)
MIC (Klebsiella RO 30): 0.25 µg/mL (≈ 0.354 µM)
MIC (Escherichia coli SOL 90): 0.125 µg/mL (≈ 0.177 µM)
MIC (Enterobacter RO 154): 4 µg/mL (≈ 5.67 µM)

Cc1cc(CN)ccc1C(=O)OCC1=C(C(=O)O)N2C(=O)C(NC(=O)C(=NOC(C)(C)C(=O)O)c3csc(N)n3)C2[S+]([O-])C1 (stereo not drawn) [42 848]
MIC (Pseudomonas RL 112): 4 µg/mL (≈ 6.17 µM)
MIC (Klebsiella RO 30): 0.125 µg/mL (≈ 0.193 µM)
MIC (Escherichia coli SOL 90): 0.125 µg/mL (≈ 0.193 µM)
MIC (Enterobacter RO 154): 2 µg/mL (≈ 3.08 µM)
